Experimental data taken from patent publication US20240156789A1, “ORAL FELINE FEED AND METHODS FOR CONTROLLING FLEA INFESTATIONS IN A FELINE” (priority 2021, published 2024).

Experiments:
Format in all cases: in vivo
Ctenocephalides felis [1] = assay: Example 6: efficacy of Mivorilaner in medicated feed in cats against fleas
Description: FIG. 1. A graph of the arithmetic mean efficacy for treatment Group 2 (vertical hash) and Group 3 (horizontal hash). Percent efficacy=[AM fleas CONTROL−AM fleas TREATED]/AM fleas CONTROL Efficacy measured at 2, 9, 16, 30, and 37 days after Initial Treatment.
Methods: A pool of cats are to be preliminarily infested with ˜100 unfed adult C. felis fleas in order to produce cats that can suitably sustain a reliable infestation rate, defined as approximately 50% retention of live fleas at the end of a 48-hour period. The cats with the highest live flea counts are to be randomly assigned to a single control group (Group 1) and 2 medicated feed treatment groups (Groups 2 and 3) with 4 cats per group. The cats in groups 2 and 3 will receive Mivorilaner.
(§1) The cats are to be housed individually during the study period and are to have ad libitum access to water.
Each cat in a treatment group (Groups 2 and 3) is to receive a medicated daily feed from study days 0-29 according to TABLE 4.
The cats are to be fasted overnight prior to each daily treatment. The daily dose of Mivorilaner is to be mixed into a small portion (approximately 25% of the cat's daily dietary needs) of wet canned cat food. Approximately 4 hours after the medicated feed has been initially offered, the remaining medicated feed, if any, will be mixed with the 75% unmedicated daily feed for each cat. […]

[2] = Example 5: plasma levels of isoxazoline in cats given two medicated feed formulations; conditions: 1 mg/kg daily, days 0-14
Method: Methods: A pool of cats are to be randomly assigned to a single control group and 2 treatment groups with 6 cats per group.
as §1
Each cat in a treatment group (test groups 2 and 3) is to receive one of two medicated daily feeds from study days 0-14. The medicated daily feed is to be offered to the cats for 1 hour on each of days 0-14 according to TABLE 3.
Blood is to be drawn at day 0 (day of the first administration of medicated feed) and days 2, 4, 7, 10, 14, 21 and 30 after the initial dose of isoxazoline is administered. The average concentration of isoxazoline in the blood for each of the medicated feed formulations (treatment groups 2 and 3) can then be determined.

Ctenocephalides felis [3] = assay: Example 1: efficacy of isoxazoline liquid formulation given by mouth to cats against fleas; conditions: 1.125 mg/kg by mouth daily on days 0-29, liquid formulation, fed
Description: Methods: A pool of 14 cats are to be preliminarily infested with ˜100 unfed adult C. felis in order to identify cats that can suitably sustain a reliable infestation rate, defined as approximately 50% fleas being live at the end of a 48-hour period. The 12 cats with the highest live flea counts are to be selected for inclusion in the study. The cats are to be randomized and divided into a control group and a treatment group with 6 cats per group.
The cats are to be housed individually during the study period and are to be fed a commercial dry cat food ration with ad libitum access to water.
(§2) Each cat in the isoxazoline treatment group is to receive by mouth a liquid formulation of isoxazoline. The dosage of 1.125 mg/kg of isoxazoline is to be administered to the cats on each of days 0-29.
Cats in the control group are not to receive isoxazoline or any other flea control treatment. Each cat in the treatment group is to be offered its daily ration (dry food) and the individual doses of liquid formulation are to be administered after the individual cat has eaten at least 25% of its total daily ration. After receiving the dose of isoxazoline, the cats are to be allowed to continue eating. This mimics incorporating the isoxazoline in feed. Each cat in the treatment group and the control group is to be experimentally infested with 100 unfed adult fleas on test days −1, 5, 12, 20 and 35. […]

[4] = Example 1: average plasma concentration of isoxazoline in cats, daily oral liquid dosing; conditions: 1.125 mg/kg daily oral
Method: as §2
Using the same study method as described above, blood is to be drawn at 72, 168, 336, 504, 720 and 888 hours after the initial dose of isoxazoline is administered. The average concentration of isoxazoline in the blood can then be determined.

## O=C(CNC(=O)c1sc(C2=NO[C@@](c3cc(Cl)c(F)c(Cl)c3)(C(F)(F)F)C2)c2c1CCC2)NCC(F)F [mivorilaner, 3-[(5S)-5-(3,5-dichloro-4-fluorophenyl)-5-(trifluoromethyl)-4,5-dihydroisoxazol-3-yl]-N-[2-[(2,2-difluoroethyl)amino]-2-oxoethyl]-5,6-dihydro-4H-cyclopenta[c]thiophene-1-carboxamide]
Ctenocephalides felis [1]; Group 2, 0.75 mg/kg daily in wet canned cat food days 0-29, by day 9
  Percent efficacy (reduction in live and moribund flea counts): 100%
Ctenocephalides felis [1]; Group 3, 1.5 mg/kg daily in wet canned cat food days 0-29, by day 9
  Percent efficacy (reduction in live and moribund flea counts): 100%
[2]
  plasma concentrations: consistent between treatment groups 2 and 3
Ctenocephalides felis [3]
  reduction in live flea counts over the control group: at least 95%
[4]; at 72 hours
  average plasma concentration: about 1011 ng/mL
[4]; at 504 hours
  average plasma concentration: about 4088 ng/mL
[4]; at 888 hours, approximately 8 days after the final dose
  average plasma concentration: about 3025 ng/mL
